Source: US5686613A, “Tridentate metal ligands of certain pyridine phosphonic acids” (priority 1996, dated 1997)
Read-outs that look alike come from different tables or passages of the source. Each block holds one compound with its values, some of them ahead of it.

Columns and labels:
[1] = Degradation of Fe(III)-2,6 PDPA in H2S redox reaction without stabilizer (uv-vis spectrophotometric analysis), pH 8.5 and 25° C.; assay type: physicochemical; conditions: pH 8.5, 25° C., no stabilizer
Procedure: Both ligands were evaluated in the iron chelate form.
The concentration of 2,6 PDPA was analyzed by the following uv-vis spectrophotometric measurements: to 1.0 mL of solution taken from the continuous reactor, 150 mg of NaOH in 15 mL water was added with stirring. The mixture was heated with a steam-bath for 2 hr, then allowed to stand at room temperature for 2 hr. […] The filtrate combined with the washings, was transferred to a 50 mL volumetric flask, and diluted to […] with 6M HCl. This solution was ready for uv-vis spectrophotometric analysis.

[2] = Degradation of Fe(III) chelate ligand in H2S redox reaction in the presence of thiosulfate stabilizer; assay type: physicochemical; conditions: for NTA (M) (concentration remaining) / NTA, % Remaining: Fe(III)-NTA, pH 8.5, 32 g Na2S2O3 per liter
Description: Table 3 and FIG. 5 contain the data obtained from a run with the continuous glass reaction apparatus described above.

[3] = Procedure: The degradation resistances of pyridine-2-phosphonic-6-carboxylic acid (2P6C) and pyridine-2,6-diphosphonic acid (2,6-PDPA), prepared by the synthesis schemes presented in FIGS. 2 and 3, respectively, were evaluated as described below. Both ligands were evaluated in the iron chelate form.
1. Degradation of Fe(III)-2P6C at pH 8.5 and 25° C. (Fe(III)0.018M, 2P6C 0.036 M; H2 S flow rate=2.0 mL/min.)
(§1) The redox reaction was carried out in a continuous glass reaction apparatus as described in D. Chen, R. J. Motekaitis, A. E. Martell and D. McManus, Can. J. Chem., 71, 1524 (1993) which is incorporated herein by reference.
Preparation of iron-free sample. To 4.0 mL of solution taken from the continuous reactor, 100 mg of NaOH in 20 mL water were added dropwise with stirring. The mixture was heated to 70°-80° C. for 30 min. The Fe(OH)3 that precipitated was filtered off carefully and was washed several times with water. The filtrate was combined with the washings and was transferred to a 50 mL volumetric flask. The pH of the solution was adjusted with acid to 4.2, and then diluted with distilled water to 50 mL.
Operating conditions. Analytical column: I-SIL 5 C8, reverse phase 4.5×150 mm; Column temperature: ambient; mobile phase flow rate: 1.5 mL/min; Detector: UV at 275 nm, 0.20 AUFS; Sample volume: 20 microliter; Recorder: 10 mV full-scale; Chart speed: 0.5 cm/min. The mobile phase contained: 0.0010 M Cu(II), 60:40 H2 O: MeOH, 2% HOAc, 0.2% CH3 (CH2)15 (CH3)3 NBr, adjusted to pH 4.2 With NaOH solution.
Using the same test conditions described above, the degradation of nitrilotriacetic acid (NTA) was evaluated.

[4] = remark: listed apart in the source
Procedure: as §1
Experimental runs were also conducted with 2P6C, with and without K2 SO3 added as a stabilizer.

[5] = iron chelate, cited from earlier work
[6] = h2s redox reactor, 100 h, 36000 µM, pH 8.5

SMILES: O=P(O)(O)c1cccc(P(=O)(O)O)n1 [2,6-PDPA, pyridine-2,6-diphosphonic acid]
degradation ([1]; 100 hr, Fe(III) 0.0090 M, 2,6 PDPA 0.018 M): no significant degradation was observed
degradation, estimated ([1]; over 100 hr, 18000 µM): less than 5%
degradation in the presence of thiosulfate ([2]; after 100 hr of operation, thiosulfate): no detectable degradation was observed

NTA, % Remaining ([3]; 0 min, pH 8.5): 100.0%
NTA, % Remaining ([3]; h2s redox reactor, 12 h, pH 8.5): 75.7%
NTA, % Remaining ([3]; h2s redox reactor, 20 h, pH 8.5): 65.7%
NTA, % Remaining ([3]; h2s redox reactor, 30 h, pH 8.5): 52.4%
NTA, % Remaining ([3]; h2s redox reactor, 40 h, pH 8.5): 49.4%
NTA, % Remaining ([3]; h2s redox reactor, 64 h, pH 8.5): 32.9%
NTA, % Remaining ([3]; h2s redox reactor, 77 h, pH 8.5): 26.2%
degradation with thiosulfate [2]: much slower when thiosulfate is added
rate of degradation with thiosulfate [2]: still measurable
NTA (M) (concentration remaining) ([2]; 0 hr): 0.0362 M
NTA, % Remaining ([2]; 0 hr): 100.0%
NTA (M) (concentration remaining) ([2]; 14.0 hr): 0.0344 M
NTA, % Remaining ([2]; 14.0 hr): 95.0%
NTA (M) (concentration remaining) ([2]; 26.0 hr): 0.0333 M
NTA, % Remaining ([2]; 26.0 hr): 92.0%
NTA (M) (concentration remaining) ([2]; 39.0 hr): 0.0320 M
NTA, % Remaining ([2]; 39.0 hr): 88.4%
NTA (M) (concentration remaining) ([2]; 50.0 hr): 0.0317 M
NTA, % Remaining ([2]; 50.0 hr): 87.6%
NTA (M) (concentration remaining) ([2]; 66.0 hr): 0.0306 M
NTA, % Remaining ([2]; 66.0 hr): 84.5%
NTA (M) (concentration remaining) ([2]; 80.0 hr): 0.0297 M
NTA, % Remaining ([2]; 80.0 hr): 82.0%
NTA (M) (concentration remaining) ([2]; 99.0 hr): 0.0293 M
NTA, % Remaining ([2]; 99.0 hr): 80.9%
SMILES: O=C(O)CN(CC(=O)O)CC(=O)O [NTA, nitrilotriacetic acid]

SMILES: O=C(O)c1cccc(P(=O)(O)O)n1 [2P6C, pyridine-2-phosphonic-6-carboxylic acid]
degradation compared with NTA [3]: degrades much more slowly than NTA
2P6C % Remaining ([3]; 0 min, 36000 uM, pH 8.5): 100.0%
2P6C % Remaining ([3]; h2s redox reactor, 25 h, 36000 µM, pH 8.5): 94.4%
2P6C % Remaining ([3]; h2s redox reactor, 50 h, 36000 µM, pH 8.5): 86.1%
2P6C % Remaining ([3]; h2s redox reactor, 84 h, 36000 µM, pH 8.5): 83.3%
2P6C % Remaining [3, 6]: 80.6%
2P6C lost after redox reaction [3, 6]: about 20%
degradation during the redox reaction ([3]; pH 8.5): degrades very slowly
effect of hydroxylation/degradation on the process ([3]; pH 8.5): no deleterious effect on the process is observed
degradation in the presence of thiosulfate [2]: no detectable degradation was observed
2P6C % Remaining ([4]; 0 min): 100.0%
2P6C % Remaining ([4]; h2s reactor, 5% k2so3, 2 h): 100.0%
2P6C % Remaining ([4]; h2s reactor, 5% k2so3, 20 h): 97.7%
2P6C % Remaining ([4]; h2s reactor, 5% k2so3, 44 h): 97.6%
2P6C % Remaining ([4]; h2s reactor, 5% k2so3, 68 h): 97.4%
2P6C % Remaining ([4]; h2s reactor, 5% k2so3, 92 h): 98.9%

SMILES: O=C(O)c1cccc(C(=O)O)n1 [2,6-pyridinedicarboxylic acid]
precipitation of ferric hydroxide from ferric chelate ([5]; normal pH of the process): unacceptable precipitation of ferric hydroxide
resistance to catalyst degradation [5]: good resistance to catalyst degradation
